Test results: patent US20230174945A1, “METHOD FOR INDUCING DIFFERENTIATION INTO PANCREATIC ALPHA CELLS” (KANEKA CORPORATION, priority 2020, published 2023)

Columns and labels:
human iPS cells [1] = assay: Quantitative RT-PCR of cells differentiated from human iPS cells, with additives in the endodermal cell to primitive gut tube (PGT) cell step; assay type: cell-based; conditions: added to medium for 3 days when inducing endodermal cells into PGT cells (0.67 µM LDN193189, 1 µM EC23); compared to cells of Comparative Example 1; standardized by OAZ1; FIG. 1
Method: Differentiation was induced by the same method as in Comparative Example 1 up to the endodermal cells. For induction of differentiation from the endodermal cells into primitive gut tube (PGT) cells, the suspension culture was implemented for 3 days in a medium obtained by adding 0.67 µM LDN193189 to the medium used in Comparative Example 1, a medium obtained by adding 1 µM EC23 to the medium used in Comparative Example 1, or a medium obtained by adding both of them to the medium used in Comparative Example 1. In addition, 2.5 µM Y-27632 was added to the above-mentioned medium for the purpose of maintaining the shape of the clumps. A 30 mL single-use bioreactor was mounted on a six-channel magnetic stirrer, and while stirring at the speed of 45 rpm, the suspension culture was implemented in a 5% CO2 incubator at 37° C. Induction of differentiation after posterior foregut (PFG) cells was performed in the same method as in Comparative Example 1.
Total RNA was isolated and purified from the cells obtained by inducing differentiation in (1) using Isogen (Nippon Gene), and cDNA was synthesized from the obtained total RNA using PrimeScriptII (TaKaRa Bio Inc.). Using the obtained cDNA as a template, quantitative PCR was implemented by means of a MyiQ qPCR machine (Bio-Rad), using GoTaq qPCR master mix (Promega). For the detection, the intercalation method using SYBR Green was used, and for the gene expression level comparison, the relative quantification method by means of the ΔΔCt method or the ΔCt method was used. The expression level of each gene was standardized by OAZ1 which is a housekeeping gene.

human iPS cells [2] = assay: Measurement of GCG (glucagon) secretion amount by Glucagon ELISA; assay type: cell-based; conditions: ascorbic acid removed from differentiation medium after PGT cells (Example 2) compared to medium with 0.25 mM ascorbic acid (Example 1); 2.0 mM glucose, 1 hour; FIG. 2
Method: Primitive gut tube (PGT) cells were produced from human iPS cells by the same method as in Example 1. The obtained primitive gut tube (PGT) cells were induced to differentiate into cells after posterior foregut (PFG) cells using a medium obtained by removing ascorbic acid from the medium of Comparative Example 1. The cells obtained by inducing differentiation in (1) were recovered in 2 × 10^6 cells and cultured for 30 minutes in a DMEM medium (containing 2 mM glucose) containing 10 mM HEPES and 0.1 (volume/volume)% BSA. Thereafter, the cells were washed twice with a DMEM medium (without glucose) containing 10 mM HEPES and 0.1 (volume/volume)% BSA. Thereafter, the cells were cultured for 1 hour in a DMEM medium containing 1 mL of 2.0 mM glucose, 10 mM HEPES, and 0.1 (volume/volume)% BSA. Thereafter, the GCG concentration contained in the culture supernatant was measured using a Glucagon ELISA 10 µl Kit (Mercodia). The GCG secretion amounts of the cells obtained in Example 1 and Comparative Example 1 were also measured as comparison targets by the above-mentioned method.

With `CC1(C)CCC(C)(C)c2cc(C#Cc3ccc(C(=O)O)cc3)ccc21` [EC23] the “expression level of the GCG gene” value (human iPS cells [1]) was “up-regulation”.

For `c1ccc2c(-c3cnn4cc(-c5ccc(N6CCNCC6)cc5)cnc34)ccnc2c1` [LDN193189], the “expression level of the INS gene” value (human iPS cells [1]) was “down-regulation” and the “expression level of the NKX6.1 gene” value (human iPS cells [1]) was “down-regulation”.

For `O=C1O[C@H]([C@@H](O)CO)C(O)=C1O` [ascorbic acid], the glucagon secretion amount (human iPS cells [2]) was “larger”.
